Measured values: the supplement of paper PMC10307832

Tests used:
Assay in all cases: relative viability (nuclei count vs DMSO), 5 days (fraction); higher = more cells survive
[1] = test system: H3255
Summary of the method: (§1)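 Lung cancer cell lines in 1536-well plates were dosed by pin tool the day after seeding, either with one drug alone or with a fixed anchor-drug dose plus five library-drug doses (not always all listed) in √10 steps. After 5 days, cells were fixed and their nuclei stained in one step (final 0.05% Triton X-100, 1% formaldehyde, 1 ug/ml Hoechst), then counted on 4× images. Relative viability is the nuclei count in treated wells divided by that in vehicle wells. Values are medians of duplicate plates.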

[2] = test system: NCI-H2085
Summary of the method: as §1

[3] = test system: NCI-H2087
Summary of the method: as §1

[4] = test system: LXF-289
Summary of the method: as §1

[5] = test system: HCC-15
Summary of the method: as §1

[6] = test system: NCI-H1437
Summary of the method: as §1

[7] = test system: NCI-H23
Summary of the method: as §1

[8] = test system: NCI-H661
Summary of the method: as §1

[9] = test system: PC-14
Summary of the method: as §1

[10] = test system: PC-3 [JPC-3]
Summary of the method: as §1

[11] = test system: NCI-H2228
Summary of the method: as §1

[12] = test system: NCI-H2009
Summary of the method: as §1

[13] = test system: HCC-366
Summary of the method: as §1

[14] = test system: NCI-H2342
Summary of the method: as §1

[15] = test system: LC-2-ad
Summary of the method: as §1

[16] = test system: COR-L23
Summary of the method: as §1

[17] = test system: SK-MES-1
Summary of the method: as §1

[18] = test system: HCC-827
Summary of the method: as §1

[19] = test system: LCLC-103H
Summary of the method: as §1

[20] = test system: NCI-H1975
Summary of the method: as §1

[21] = test system: NCI-H1666
Summary of the method: as §1

[22] = test system: UMC-11
Summary of the method: as §1

CN1CCN(CCOc2cc(OC3CCOCC3)c3c(Nc4c(Cl)ccc5c4OCO5)ncnc3c2)CC1 [Saracatinib] + Nc1nc2[nH]cc(CCc3ccc(C(=O)N[C@@H](CCC(=O)O)C(=O)O)cc3)c2c(=O)[nH]1 [Pemetrexed] (partner 0.2 µM) gave a relative viability ([1]; first compound 0.02 µM) of 0.591, a relative viability ([1]; first compound 0.2 µM) of 0.514 and a relative viability ([1]; first compound 0.6325 µM) of 0.521. It also gave a relative viability ([1]; first compound 2 µM) of 0.421, a relative viability ([2]; first compound 0.02 µM) of 0.929 and a relative viability ([2]; first compound 0.2 µM) of 0.838. It also gave a relative viability ([2]; first compound 0.6325 µM) of 0.85, a relative viability ([2]; first compound 2 µM) of 0.63 and a relative viability ([3]; first compound 0.02 µM) of 0.63. It also gave a relative viability ([3]; first compound 0.2 µM) of 0.722, a relative viability ([3]; first compound 0.6325 µM) of 0.574 and a relative viability ([3]; first compound 2 µM) of 0.707. For the same compound, the relative viability ([4]; first compound 0.02 µM) was 0.875, the relative viability ([4]; first compound 0.2 µM) was 0.902 and the relative viability ([4]; first compound 0.6325 µM) was 0.985. It also gave a relative viability ([4]; first compound 2 µM) of 1, a relative viability ([5]; first compound 0.02 µM) of 0.213 and a relative viability ([5]; first compound 0.2 µM) of 0.225. The relative viability ([5]; first compound 0.6325 µM) was 0.219, the relative viability ([5]; first compound 2 µM) was 0.222 and the relative viability ([6]; first compound 0.02 µM) was 0.329. The relative viability ([6]; first compound 0.2 µM) was 0.247, the relative viability ([6]; first compound 0.6325 µM) was 0.277 and the relative viability ([6]; first compound 2 µM) was 0.286. For the same compound, the relative viability ([7]; first compound 0.02 µM) was 0.683, the relative viability ([7]; first compound 0.6325 µM) was 0.613 and the relative viability ([7]; first compound 2 µM) was 0.519. For the same compound, the relative viability ([8]; first compound 0.02 µM) was 0.942, the relative viability ([8]; first compound 0.2 µM) was 0.84 and the relative viability ([8]; first compound 0.6325 µM) was 0.846. It also gave a relative viability ([8]; first compound 2 µM) of 0.699, a relative viability ([9]; first compound 0.02 µM) of 0.133 and a relative viability ([9]; first compound 0.2 µM) of 0.114. It also gave a relative viability ([9]; first compound 0.6325 µM) of 0.118, a relative viability ([9]; first compound 2 µM) of 0.111 and a relative viability ([10]; first compound 0.02 µM) of 1.04. For the same compound, the relative viability ([10]; first compound 0.2 µM) was 0.709, the relative viability ([10]; first compound 0.6325 µM) was 0.656 and the relative viability ([10]; first compound 2 µM) was 0.469. For the same compound, the relative viability ([11]; first compound 0.02 µM) was 0.355, the relative viability ([11]; first compound 0.2 µM) was 0.342 and the relative viability ([11]; first compound 0.6325 µM) was 0.332. It also gave a relative viability ([11]; first compound 2 µM) of 0.266, a relative viability ([12]; first compound 0.02 µM) of 1.01 and a relative viability ([12]; first compound 0.2 µM) of 0.962. For the same compound, the relative viability ([12]; first compound 0.6325 µM) was 0.993, the relative viability ([12]; first compound 2 µM) was 1.05 and the relative viability ([13]; first compound 0.02 µM) was 0.162. For the same compound, the relative viability ([13]; first compound 0.2 µM) was 0.17, the relative viability ([13]; first compound 0.6325 µM) was 0.189 and the relative viability ([13]; first compound 2 µM) was 0.17. For the same compound, the relative viability ([14]; first compound 0.02 µM) was 0.83, the relative viability ([14]; first compound 0.2 µM) was 0.673 and the relative viability ([14]; first compound 0.6325 µM) was 0.789. The relative viability ([14]; first compound 2 µM) was 0.84, the relative viability ([15]; first compound 0.02 µM) was 0.286 and the relative viability ([15]; first compound 0.2 µM) was 0.282. It also gave a relative viability ([15]; first compound 0.6325 µM) of 0.268, a relative viability ([15]; first compound 2 µM) of 0.27 and a relative viability ([16]; first compound 0.02 µM) of 0.211. It also gave a relative viability ([16]; first compound 0.2 µM) of 0.2, a relative viability ([16]; first compound 0.6325 µM) of 0.176 and a relative viability ([16]; first compound 2 µM) of 0.184. For the same compound, the relative viability ([17]; first compound 0.02 µM) was 0.923, the relative viability ([17]; first compound 0.2 µM) was 0.905 and the relative viability ([17]; first compound 0.6325 µM) was 0.886. It also gave a relative viability ([17]; first compound 2 µM) of 0.466, a relative viability ([18]; first compound 0.02 µM) of 0.286 and a relative viability ([18]; first compound 0.2 µM) of 0.158. It also gave a relative viability ([18]; first compound 0.6325 µM) of 0.189, a relative viability ([18]; first compound 2 µM) of 0.168 and a relative viability ([19]; first compound 0.02 µM) of 0.444. It also gave a relative viability ([19]; first compound 0.2 µM) of 0.329, a relative viability ([19]; first compound 0.6325 µM) of 0.451 and a relative viability ([19]; first compound 2 µM) of 0.48. The relative viability ([20]; first compound 0.02 µM) was 0.276, the relative viability ([20]; first compound 0.2 µM) was 0.265 and the relative viability ([20]; first compound 0.6325 µM) was 0.275. It also gave a relative viability ([20]; first compound 2 µM) of 0.253, a relative viability ([21]; first compound 0.02 µM) of 0.877 and a relative viability ([21]; first compound 0.2 µM) of 0.508. The relative viability ([21]; first compound 0.6325 µM) was 0.878, the relative viability ([21]; first compound 2 µM) was 0.841 and the relative viability ([22]; first compound 0.02 µM) was 0.809. For the same compound, the relative viability ([22]; first compound 0.2 µM) was 0.699, the relative viability ([22]; first compound 0.6325 µM) was 0.898 and the relative viability ([22]; first compound 2 µM) was 0.607.
